“Also recorded” adds a separate entry of the source.
How the values were obtained:
[1] = tested on: Neurofilament L mRNA in MNs expressing C71G PFN1; test: Fluorescence in situ hybridization of Neurofilament L mRNA; assay type: cell-based, mouse; settings: IMM01 vs DMSO
Procedure: Primary motor neurons (MNs) were isolated from E12.5 mouse embryonic spinal cords dissociated in 0.1% trypsin (Worthington) at 37° C. for 12 minutes. MNs were purified using a 6% Optiprep (Sigma-Aldrich) density gradient and plated on glass coverslips coated with 0.5 g/L poly-ornithine (Sigma-Aldrich) and laminin (Thermo Fisher). Cells were grown at 37° C. and 5% CO2 in Neurobasal medium (Thermo Fisher) supplemented with 0.25% Glutamax, 2% B27, 2% horse serum, and 10 ng/ml BDNF, GDNF, and CNTF. MNs at 2 days in vitro (DIV) were transfected using 1.75 μl NeuroMag reagent (OZ Biosciences)+0.5 μg DNA. Complete growth medium was replaced with serum free neurobasal medium 1 hour prior and after transfection. The paramagnetic nanobeads used for transfection can linger inside the cell and in the extracellular space for several days and can be detected as DAPI positive dots. The V5-PFN1 plasmids were described in Wu, C. […]
Immunofluorescence images were deconvolved using an adaptative blind deconvolution algorithm (Autoquant X3, Media Cybernetics) before analysis. To measure fluorescence intensities, the signals were thresholded and the resulting integrated densities were normalized on the area of the selected region (e.g. cell body, nucleus). […] For NCT dynamics, the fluorescence intensity of S-mCherry was measured in the nucleus using ImageJ and normalized to the background for every time point. […]

[2] = tested on: primary motor neurons (MNs); test: Cell death / apoptosis in treated motor neurons; assay type: cell-based, mouse
Procedure: (§1) Primary motor neurons (MNs) were isolated from E12.5 mouse embryonic spinal cords dissociated in 0.1% trypsin (Worthington) at 37° C. for 12 minutes. MNs were purified using a 6% Optiprep (Sigma-Aldrich) density gradient and plated on glass coverslips coated with 0.5 g/L poly-ornithine (Sigma-Aldrich) and laminin (Thermo Fisher). Cells were grown at 37° C. and 5% CO2 in Neurobasal medium (Thermo Fisher) supplemented with 0.25% Glutamax, 2% B27, 2% horse serum, and 10 ng/ml BDNF, GDNF, and CNTF. MNs at 2 days in vitro (DIV) were transfected using 1.75 μl NeuroMag reagent (OZ Biosciences)+0.5 μg DNA. Complete growth medium was replaced with serum free neurobasal medium 1 hour prior and after transfection. The paramagnetic nanobeads used for transfection can linger inside the cell and in the extracellular space for several days and can be detected as DAPI positive dots. The V5-PFN1 plasmids were described in Wu, C. H. et al. Mutations in the profilin 1 gene cause familial amyotrophic lateral sclerosis. Nature 488, 499-503 (2012). The (G4C2)80 (SEQ ID NO:12). construct was described in Almeida, S. et al. Modeling key pathological features of frontotemporal dementia with C9ORF72 repeat expansion in iPSC-derived human neurons. Acta Neuropathol 126, 385-399 (2013). […]

[3] = tested on: primary motor neurons (MNs) expressing C71G PFN1; test: Immunofluorescence of nuclear pore/NCT factors and TDP-43 in motor neurons expressing mutant PFN1; assay type: cell-based, mouse; settings: vs DMSO
Procedure: as §1, with “(2013). For the GFP-PFN1 constructs, WT or mutant PFN1 was PCR amplified from the V5 constructs and cloned in the pEGFP-C1 backbone using BamHI sites. The FH1-FH2 domains of murine formin mDia1 (amino acid residues 553-1192) were PCR amplified using specific primers and cloned into the pEGFP-C1 plasmid using XhoI and BamHI restriction sites. GFP or GFP-mDia1 were co-transfected in a 1:2 ratio with PFN1 or C9ORF72 plasmids.” for “(2013).”
(§2) Immunofluorescence images were deconvolved using an adaptative blind deconvolution algorithm (Autoquant X3, Media Cybernetics) before analysis. To measure fluorescence intensities, the signals were thresholded and the resulting integrated densities were normalized on the area of the selected region (e.g. cell body, nucleus). […]

[4] = tested on: fibroblasts from ALS patients carrying C9ORF72 repeat expansions; test: Immunofluorescence of RanGAP1 and FG-Nups in C9ORF72-ALS patient fibroblasts; assay type: cell-based, human; settings: 0.1 μM IMM01 for 24 hours, vs DMSO
Procedure: Fibroblasts were obtained from skin biopsies of 3 ALS patients carrying mutations in C9ORF72 gene and of 3 healthy donors, sex- and age-matched with ALS cases, after informed consent and approval by the IRCCS Istituto Auxologico Italiano ethics committee. C9ORF72 mutation was validated in primary fibroblasts by repeat-primed PCR and repeat expansion size determined by Southern blot analysis (range 600-1500 units). Fibroblasts were grown in RPMI 1640 medium (EuroClone) containing 2 g/L glucose and supplemented with 10% FBS (Sigma Aldrich), 2 mM L-glutamine, 2.5 μg/ml amphotericin B (Sigma Aldrich), 100 units/ml penicillin and 100 μg/ml streptomycin (Gibco). […]
Immunofluorescence images were deconvolved using an adaptative blind deconvolution algorithm (Autoquant X3, Media Cybernetics) before analysis. To measure fluorescence intensities, the signals were thresholded and the resulting integrated densities were normalized on the area of the selected region (e.g. cell body, nucleus). […] For NCT dynamics, the fluorescence intensity of S-mCherry was measured in the nucleus using ImageJ and normalized to the background for every time point. […] For the analysis of axonal fluorescence intensities, a 100 μm long region of the proximal axon was measured in all conditions. Axon lengths were measured using the ImageJ plugin NeuronJ 60. […]

[5] = tested on: fibroblasts from ALS patients carrying C9ORF72 repeat expansions; test: FISH for C9ORF72 RNA nuclear foci in patient fibroblasts; assay type: cell-based, human; settings: IMM01 treatment
Procedure: Fibroblasts were obtained from skin biopsies of 3 ALS patients carrying mutations in C9ORF72 gene and of 3 healthy donors, sex- and age-matched with ALS cases, after informed consent and approval by the IRCCS Istituto Auxologico Italiano ethics committee. C9ORF72 mutation was validated in primary fibroblasts by repeat-primed PCR and repeat expansion size determined by Southern blot analysis (range 600-1500 units). Fibroblasts were grown in RPMI 1640 medium (EuroClone) containing 2 g/L glucose and supplemented with 10% FBS (Sigma Aldrich), 2 mM L-glutamine, 2.5 μg/ml amphotericin B (Sigma Aldrich), 100 units/ml penicillin and 100 μg/ml streptomycin (Gibco). 10,000 cell/well were seeded on glass coverslip in 24-well plates and after 24 hours, 50% of medium was replaced with fresh medium and IMM01 (Sigma Aldrich) at the final concentration of 0.1 μM. After a 24-hour treatment, cells were fixed with 4% paraformaldehyde for 20 minutes, permeabilized with 0.3% Triton X-100/1×PBS for 5 minutes and processed for immunofluorescence as described below.
Motor neurons were fixed in 4% RNase-free paraformaldehyde for 15 minutes and stored in 70% ethanol at 4° C. overnight. […]

[6] = tested on: primary motor neurons (MNs) expressing C71G PFN1; test: Axon length and outgrowth analysis; assay type: cell-based, mouse
Procedure: Motor neurons were co-transfected as outlined above with green fluorescent protein (GFP) and V5-tagged PFN1 constructs in a 1:2 ratio. KPT-276 (50 nM) or equal volumes of DMSO were added to the culture medium 1 day after transfection and maintained throughout the experiment for a total of 3 days. Cells were fixed and stained to detect V5-PFN1 expression 4 days after transfection. Cells were imaged as individual focal planes using a 10× lens. GFP was used to identify transfected cells and highlight the whole cell structure. […]
Immunofluorescence images were deconvolved using an adaptative blind deconvolution algorithm (Autoquant X3, Media Cybernetics) before analysis. To measure fluorescence intensities, the signals were thresholded and the resulting integrated densities were normalized on the area of the selected region (e.g. cell body, nucleus). […] For NCT dynamics, the fluorescence intensity of S-mCherry was measured in the nucleus using ImageJ and normalized to the background for every time point. […] For the analysis of axonal fluorescence intensities, a 100 μm long region of the proximal axon was measured in all conditions. Axon lengths were measured using the ImageJ plugin NeuronJ 60. […] The rate of axon outgrowth was measured using the ImageJ plugin MTrackJ by tracking the movement of the growth cone in all fields. […]

[7] = tested on: primary motor neurons (MNs); test: Actin depolymerization assay: immunofluorescence of NCT factors in Latrunculin A treated motor neurons; assay type: cell-based, mouse; settings: 0.1 mg/L Latrunculin A for 3 days
Procedure: Primary motor neurons (MNs) were isolated from E12.5 mouse embryonic spinal cords dissociated in 0.1% trypsin (Worthington) at 37° C. for 12 minutes. MNs were purified using a 6% Optiprep (Sigma-Aldrich) density gradient and plated on glass coverslips coated with 0.5 g/L poly-ornithine (Sigma-Aldrich) and laminin (Thermo Fisher). Cells were grown at 37° C. and 5% CO2 in Neurobasal medium (Thermo Fisher) supplemented with 0.25% Glutamax, 2% B27, 2% horse serum, and 10 ng/ml BDNF, GDNF, and CNTF. MNs at 2 days in vitro (DIV) were transfected using 1.75 μl NeuroMag reagent (OZ Biosciences)+0.5 μg DNA. Complete growth medium was replaced with serum free neurobasal medium 1 hour prior and after transfection. The paramagnetic nanobeads used for transfection can linger inside the cell and in the extracellular space for several days and can be detected as DAPI positive dots. The V5-PFN1 plasmids were described in Wu, C. H. et al. Mutations in the profilin 1 gene cause familial amyotrophic lateral sclerosis. Nature 488, 499-503 (2012). The (G4C2)80 (SEQ ID NO:12). construct was described in Almeida, S. et al. Modeling key pathological features of frontotemporal dementia with C9ORF72 repeat expansion in iPSC-derived human neurons. Acta Neuropathol 126, 385-399 (2013). For the GFP-PFN1 constructs, WT or mutant PFN1 was PCR amplified from the V5 constructs and cloned in the pEGFP-C1 backbone using BamHI sites. The FH1-FH2 domains of murine formin mDia1 (amino acid residues 553-1192) were PCR amplified using specific primers and cloned into the pEGFP-C1 plasmid using XhoI and BamHI restriction sites. GFP or GFP-mDia1 were co-transfected in a 1:2 ratio with PFN1 or C9ORF72 plasmids. Mock transfection controls were performed by subjecting the cells to all the steps of transfection without adding any plasmid DNA. For actin depolymerization assays, 2 DIV MNs were treated with 0.1 mg/L Latrunculin A (Cayman) for 3 days. For nuclear export inhibition, MNs were treated with 50 nM KPT-276 (Selleck) or equal volume of DMSO (Sigma Aldrich) 1 day after transfection. For formin induction, MNs were treated with 0.1 μM IMM01 (EMD Millipore) for 24 hr before fixation at 6 DIV.
Cells were fixed with 4% paraformaldehyde for 15 minutes. Fixed motor neurons were treated with hot 10 mM citrate buffer, pH 6 for 20 minutes before permeabilization with 0.2% Triton-X 100 for 5 minutes. […]
as §2

What does the source list for `CC(C)(C)NC(=S)N/N=C/c1ccc(O)cc1O` [IMM01]?
axonal localization of Nef1 mRNA [1]: rescue the defects in the axonal localization; also recorded: rescue of mislocalization; induction of apoptosis ([2]; primary MNs, 0.1 μM IMM01 for 24 hours): No induction of apoptosis was detected; FG-Nups localization at the nuclear envelope ([3]; 0.1 μM IMM01 for 24 hours): rescue of FG-Nups defective localization at the nuclear envelope; also recorded: rescue of mislocalization; Ran gradient (Ran localization) ([3]; 0.1 μM IMM01 for 24 hours): rescue of mislocalization; localization of FG-Nups [4]: rescued defects in the localization; also recorded: significantly rescued the defects; localization of RanGAP1 [4]: rescued defects in the localization; also recorded: significantly rescued the defects; propensity of the cell to form C9ORF72-positive nuclear foci [5]: without changes to the propensity of the cell to form C9ORF72-positive nuclear foci

`O=C(/C=C\n1cnc(-c2cc(C(F)(F)F)cc(C(F)(F)F)c2)n1)N1CC(F)(F)C1` [KPT-276] was tested. Which “C:N ratio of TDP-43 (TDP-43 cytoplasmic mislocalization)” value ([3]; 50 nM KPT-276 6 hours prior to fixation) did it give?
The value was “fully rescue TDP-43 cytoplasmic mislocalization; also recorded: rescues C:N ratio of TDP-43”.

What about the axon length ([6]; 50 nM KPT-276 for 3 days, vs DMSO) of the same compound?
The axon length was “fully rescued the defect”.

What about the “rate of axon growth (outgrowth) by live cell imaging” value ([6]; 50 nM KPT-276 ~18-24 hours, imaged over 1 hour) of the same compound?
Its value is “full rescue of the outgrowth defects”.

Which results are given for `C/C1=C/C(=O)O[C@@H]2C[C@@H](CC[C@H](C)/C=C\C=C\CC1)O[C@@](O)([C@@H]1CSC(=O)N1)C2` [Latrunculin A]?
cell death or apoptosis ([2]; MNs, Latrunculin A treatment conditions (0.1 mg/L, 3 days), data not shown): No increased cell death or apoptosis was observed; localization of FG-Nups [7]: severe mislocalization; localization of Ran [7]: severe mislocalization; also recorded: disrupted; localization of RanGAP1 [7]: severe mislocalization; also recorded: disrupted; nuclear morphology [7]: smaller nuclei with condensed DNA
